Assay: Stain removal from calcium deficient hydroxyapatite disks (human tooth model), tea stain
Protocol: Tea staining Solution: 200 mL of high-purity deionized (HPDI) water was heated to boiling in a 500-mL beaker. The beaker was removed from heat and 4 Lipton™ tea bags were added. The tea bags were allowed to soak for 5 minutes. The tea bags were pressed with a spatμLa upon removal to remove liquid.
Tea staining Procedure: A calcium-deficient hydroxyapatite (HAP) disk (Clarkson Chromatography Products) was placed into a 50-mL centrifuge tube with 10 mL of tea solution. The centrifuge tube was gently shaken by hand for 15 minutes. The tea solution was decanted and replaced with 10 mL of HPDI water and vortexed for 30 seconds. The water was decanted and replaced with 10 additional mL of HPDI water and vortexed for 30 seconds. The disk was removed with forceps and patted dry with a tissue. The disk was allowed to air dry at room temperature for at least one hour.
Oxidation resistant chelating buffer: 0.25M 1-Hydroxyethylidenediphosphonic acid (etridonic acid) (Dequest® 2010, Thermphos) (HEPA) was pH adjusted by microtitration with 10N NaOH. 1.28 g of 1-Hydroxyethylidenediphosphonic acid was to a 25-mL volumetric flask and brought to volume with HPDI water. The solution was transferred to a 50-mL beaker with a stir bar and pH adjusted using 10.04N NaOH, monitored with a calibrated pH meter. Aliquat 336® (Cognis) (also suitable is Aliquat 134®) (N-methyl-tri-(n-octyl)ammonium chloride), (N-methyl TOA) or “HEPA” chelating pH Buffer: 2.5-μL of N-methyl TOA was added to 5 mL of pH 7 HEPA buffer and sonicated for 1 minute. pH 7 Sodium Dodecyl Sulfate (SDS)/HEPA Buffer: 10 mg of SDS was added to 5 mL of pH 7 HEPA buffer and sonicated for 1 minute. pH 8 SDS/HEPA Buffer: 10 mg of SDS was added to 5 mL of pH 8 HEPA buffer and sonicated for 1 minute.
• A. A tea stained disk was placed into the bowl of the bowl of a watch glass and 100 μL of pH 7 HEPA buffer was pipetted onto the disk surface. 3.7 mg of potassium ferrate(VI) was added to the disk surface and mixed gently. […] The disk was rinsed at 10 minutes with HPDI water. […] 1 mL of pH 7 HEPA buffer was added followed by 9 mL of HPDI water. 9.7 mg of potassium ferrate(VI) was added. The tube was gently hand shaken for 10 minutes. The disk was removed and rinsed with HPDI water. […] 10 mg of potassium ferrate(VI) was added to 1 mL of pH 7 HEPA buffer in a 50 mL centrifuge tube. 9 mL HPDI water was added, and the solution was shaken for a few seconds followed by the addition of a tea stained HAP disk. The disk was removed at 10 minutes and rinsed with HPDI water. […] 1.3 mg of potassium ferrate(VI) added and mixed into the solution.

[1] = disk A-2: 30 mg calcium carbonate + 250 μL HPDI water, 10 mg, no chelating buffer, rinsed at 5 minutes
[2] = disk A: 100 μL pH 7 HEPA buffer, 3.7 mg added to disk surface, rinsed at 10 minutes
[3] = disk B-1: 10 mg calcium carbonate + 12 mg in 2 mL pH 8 SDS/HEPA buffer, 5 minutes, then 1 mL buffer 45 minutes
[4] = disk B: 1 mL pH 7 HEPA buffer + 9 mL water, 9.7 mg, shaken 10 minutes
[5] = disk E: 100 μL pH 7 HEPA buffer, 1.4 mg, 5 minutes, then 100 μL pH 7 HEPA buffer 5 minutes
[6] = disk F: 100 μL pH 7 HEPA buffer + one drop of N-methyl TOA (emulsion), 1 mg
[7] = disk G: 100 μL N-methyl TOA/HEPA buffer, 0.7 mg, rinsed at 5 minutes, then 100 μL buffer 5 minutes
[8] = disk H: 100 μL N-methyl TOA/HEPA buffer, 1.3 mg, 5 minutes, then 2 x 100 μL buffer 5 minutes each
[9] = disk I: 100 μL N-methyl TOA/HEPA buffer, 1.3 mg (uneven distribution), 5 minutes, then 200 μL buffer
[10] = disk J: 200 μL N-methyl TOA/HEPA buffer, 2.3 mg, 5 minutes, then 200 μL buffer 5 minutes
[11] = disk K: 9.9 mg premixed in 1 mL N-methyl TOA/HEPA buffer, disk fully covered 10 minutes, then 400 μL buffer 45 minutes
[12] = disk L: 100 μL pH 7 SDS/HEPA buffer, 1.3 mg, 10 minutes, then 100 μL buffer ten minutes
[13] = disk M: 1 mL of 29.3 mg in 3 mL pH 7 SDS/HEPA buffer, 3 minutes, then buffer soaks 8 and 35 minutes, extra rinse
[14] = disk N: 1 mL of 29.3 mg in 3 mL pH 7 SDS/HEPA buffer, 3 minutes, then buffer soaks 8 and 35 minutes, extra rinse
[15] = disk P: overnight tea stain, 0.75 mL of 25 mg in 1.5 mL pH 8 SDS/HEPA buffer, 5 minutes, then 1 mL buffer 45 minutes, rinsed again after drying one hour
[16] = disk Q: overnight tea stain, 0.75 mL of 25 mg in 1.5 mL pH 8 SDS/HEPA buffer, 5 minutes, then 1 mL buffer 45 minutes
[17] = disk S: tea stained disk treated the same way as P and Q (replicate)
[18] = disk U: treated the same way as P and Q, then submerged in HPDI water 45 minutes instead of drying

potassium ferrate(VI)
L* (lightness/darkness) [1]: 69.5 | a* (blue/red) [1]: 14.4 | appearance of disk after treatment [1]: the color was not removed | b* (yellow/green) [1]: 26 | reflectance of visible light at 450 nm [1]: 22.036 | reflectance of visible light at 750 nm [1]: 64.152 | ΔE (versus tea stain) [1]: 29.21 | L* (lightness/darkness) [2]: 72 | a* (blue/red) [2]: 2.6 | appearance of disk after treatment [2]: stained purple with rust stains | b* (yellow/green) [2]: −1.1 | reflectance of visible light at 450 nm [2]: 44.547 | reflectance of visible light at 750 nm [2]: 61.521 | ΔE (versus tea stain) [2]: 13.57 | L* (lightness/darkness) [3]: 100.8 | a* (blue/red) [3]: 0.5 | appearance of disk after treatment [3]: All stains were removed | b* (yellow/green) [3]: 0.1 | reflectance of visible light at 450 nm [3]: 100.124 | reflectance of visible light at 750 nm [3]: 103.677 | ΔE (versus B-2, tea stained) [3]: 15.29 | L* (lightness/darkness) [4]: 79.1 | a* (blue/red) [4]: 1.6 | appearance of disk after treatment [4]: stained purple with rust stains | b* (yellow/green) [4]: −2 | reflectance of visible light at 450 nm [4]: 57.457 | reflectance of visible light at 750 nm [4]: 69.889 | ΔE (versus tea stain) [4]: 8.29 | appearance of disk after treatment (disk C: 10 mg premixed in 1 mL pH 7 HEPA buffer + 9 mL water, disk removed at 10 minutes): stained purple | L* (lightness/darkness) [5]: 90.1 | a* (blue/red) [5]: 1.3 | appearance of disk after treatment [5]: lighter purple than previous examples | b* (yellow/green) [5]: −2.2 | reflectance of visible light at 450 nm [5]: 77.562 | reflectance of visible light at 750 nm [5]: 87.011 | ΔE (versus unstained disk) [5]: 4.24 | L* (lightness/darkness) [6]: 77 | a* (blue/red) [6]: 2.1 | appearance of disk after treatment [6]: purple with streaks where mixing occurred | b* (yellow/green) [6]: 0.7 | reflectance of visible light at 450 nm [6]: 44.547 | reflectance of visible light at 750 nm [6]: 68.873 | ΔE (versus tea stain) [6]: 8.65 | L* (lightness/darkness) [7]: 94 | a* (blue/red) [7]: 0.6 | appearance of disk after treatment [7]: purple color was removed but brown staining observed | b* (yellow/green) [7]: −0.1 | reflectance of visible light at 450 nm [7]: 82.923 | reflectance of visible light at 750 nm [7]: 92.128 | ΔE (versus tea stain) [7]: 10.88 | L* (lightness/darkness) [8]: 93.6 | a* (blue/red) [8]: 1.3 | appearance of disk after treatment [8]: light brown color | b* (yellow/green) [8]: 0.6 | reflectance of visible light at 450 nm [8]: 82.479 | reflectance of visible light at 750 nm [8]: 93.202 | ΔE (versus tea stain) [8]: 10.06 | L* (lightness/darkness) [9]: 91.2 | a* (blue/red) [9]: −0.8 | appearance of disk after treatment [9]: More decoloring was observed at the center | b* (yellow/green) [9]: −4.7 | reflectance of visible light at 450 nm [9]: 83.889 | reflectance of visible light at 750 nm [9]: 83.121 | ΔE (versus tea stain) [9]: 11.69 | L* (lightness/darkness) [10]: 87.5 | a* (blue/red) [10]: −0.1 | appearance of disk after treatment [10]: Rust spots observed | b* (yellow/green) [10]: −3.9 | reflectance of visible light at 450 nm [10]: 44.547 | reflectance of visible light at 750 nm [10]: 78.071 | ΔE (versus tea stain) [10]: 9.10 | L* (lightness/darkness) [11]: 100.8 | a* (blue/red) [11]: −0.3 | appearance of disk after treatment [11]: Significant color removal was observed | b* (yellow/green) [11]: −2.1 | reflectance of visible light at 450 nm [11]: 102.827 | reflectance of visible light at 750 nm [11]: 103.311 | ΔE (versus tea stain) [11]: 17.77 | L* (lightness/darkness) [12]: 99.1 | a* (blue/red) [12]: −0.4 | appearance of disk after treatment [12]: Most of the color was removed from the center of the disk | b* (yellow/green) [12]: −2.2 | reflectance of visible light at 450 nm [12]: 99.384 | reflectance of visible light at 750 nm [12]: 98.847 | ΔE (versus tea stain) [12]: 16.32 | L* (lightness/darkness) [13]: 100.1 | a* (blue/red) [13]: 0 | b* (yellow/green) [13]: −1.9 | reflectance of visible light at 450 nm [13]: 100.820 | reflectance of visible light at 750 nm [13]: 102.480 | ΔE (versus disk 0) [13]: 12.15 | L* (lightness/darkness) [14]: 100.6 | a* (blue/red) [14]: −0.3 | b* (yellow/green) [14]: −1.4 | reflectance of visible light at 450 nm [14]: 101.538 | reflectance of visible light at 750 nm [14]: 101.930 | ΔE (versus disk O) [14]: 12.63 | L* (lightness/darkness) [15]: 103.5 | a* (blue/red) [15]: −2.1 | b* (yellow/green) [15]: −3.2 | reflectance of visible light at 450 nm [15]: 111.059 | reflectance of visible light at 750 nm [15]: 103.081 | ΔE (versus disk R) [15]: 25.40 | L* (lightness/darkness) [16]: 101.8 | a* (blue/red) [16]: −1.2 | b* (yellow/green) [16]: −0.7 | reflectance of visible light at 450 nm [16]: 103.784 | reflectance of visible light at 750 nm [16]: 101.164 | ΔE (versus disk R) [16]: 22.83 | L* (lightness/darkness) [17]: 99.3 | a* (blue/red) [17]: 0 | reflectance of visible light at 450 nm [17]: 98.555 | reflectance of visible light at 750 nm [17]: 98.659 | L* (lightness/darkness) [18]: 96.9 | a* (blue/red) [18]: 0.4 | appearance of disk after treatment [18]: Color was removed as effectively as with a dried sample | b* (yellow/green) [18]: 0.3 | reflectance of visible light at 450 nm [18]: 89.892 | reflectance of visible light at 750 nm [18]: 94.030 | ΔE (versus tea stain) [18]: 13.44
